Source: PMC8012719 (Frontiers in Pharmacology, 2021)
Values after ≈ are worked out from the molar mass of the structure shown. Values joined by “and” are separate entries in the source; they are usually repeats but may differ in a detail not shown here. Equal entries are not always repeated. Structures can show the parent of a compound that is named as a salt. Where two headings read alike, the source gives them in different places.

Assays:
Rabies virus CVS strain = conditions: mouse, in vivo
RABV CVS strain [1] = test: microbe, parasite or virus in culture; assay type: cell-based, rabies virus; conditions: for EC50: read-out: CVS EC50
RABV vaccine strain = conditions: cited from earlier work
rabies infection = conditions: mouse, in vivo; cited from earlier work
[2] = tested on: pVSV (pseudovirus expressing a vesicular stomatitis virus envelope glycoprotein); test: microbe, parasite or virus in culture; assay type: cell-based; conditions: for EC50: read-out: pVSV EC50
[3] = tested on: pRABV (pseudovirus enveloped by the RABV glycoprotein G); test: microbe, parasite or virus in culture; assay type: cell-based, rabies virus; conditions: for EC50: read-out: pRABV EC50
RABV [4] = test: microbe, parasite or virus in culture; assay type: cell-based; conditions: Lyssavirus rabies, in Felis catus
in vitro [5] = conditions: hamster
RABV CVS strain [6] = assay type: cell-based, rabies virus
in vitro [7] = conditions: cat
in vitro [8] = conditions: human
RABV [9] = molecular target: RABV; parameters: species or system rabies virus; conditions: read-out: binding affinity (KD)
RABV [10] = conditions: cited from earlier work

With `CC(C)N=c1cc2n(-c3ccc(Cl)cc3)c3ccccc3nc-2cc1Nc1ccc(Cl)cc1` [CFZA, Clofazimine aspirin salt] the “survival rate at 14 dpi” value (Rabies virus CVS strain) was 25% and the EC50 (RABV CVS strain [1]) was 1.2 µM.

In the case of `NC(=O)c1nc(F)cnc1O` [T-705, 6-fluoro-3-hydroxy-2-pyrazinecarboxamide], the “survival at 14 dpi” value (Rabies virus CVS strain; po, 300 mg/kg/day) is given as 40%, the EC50 (RABV vaccine strain) is given as 32.4 µM and the “viral replication in the CNS” value (rabies infection) is given as “suppress viral replication in the CNS”.

For `CCc1c2c(nc3ccc(OC(=O)N4CCC(N5CCCCC5)CC4)cc13)-c1cc3c(c(=O)n1C2)COC(=O)[C@]3(O)CC.Cl` [Irinotecan hydrochloride], the EC50pVSV/EC50pRABV [2] was >5.9, the EC50 [2] was > 200 µM and the SICVS (RABV CVS strain [1]) was 1.2. For the same compound, the EC50 (RABV CVS strain [1]) was 67 µM, the CC50 (293T cells) was > 200 µM and the “SI pRABV” value [3] was >5.9. The EC50 [3] was 33.6 µM.

In the case of `CC(C)/N=c1\cc2n(-c3ccc(Cl)cc3)c3ccccc3nc-2cc1Nc1ccc(Cl)cc1` [Clofazimine], the EC50 ([2]; Pseudovirus, HEK-293T) is reported as 10.5 µM, the “antiviral efficacy (survival)” value (Rabies virus CVS strain) is reported as “did not show any antiviral efficacy” and the “percentage of sick mice at five dpi” value (Rabies virus CVS strain) is reported as 50%. For the same compound, the “survival at 14 dpi” value (Rabies virus CVS strain) was 30%, the “survival rate at 14 dpi” value (Rabies virus CVS strain) was 10% and the EC50 (RABV [4]) was 4.24 µM. The “concentrations inhibiting RABV” value (RABV CVS strain [1]) was 2 to 33 µM, the EC50 (RABV CVS strain [1]; Lyssavirus rabies, 24 h) was 2.28 µM and the EC50 (RABV CVS strain [1]) was 2.28 µM. The CC50 (in vitro [5]) was > 2200 µM, the “inhibitory effect on RABV infection” value (RABV CVS strain [6]) was “strong inhibitory effect” and the “suppression of fluorescence activity (RABV infection)” value (RABV CVS strain [6]) was “no suppression of fluorescence activity”. The CC50 (in vitro [7]) was 144 µM, the EC50 ([3]; Pseudovirus, HEK-293T, 48 h) was 1.7 µM and the CC50 (in vitro [8]) was > 200 µM. It also gave a solubility (physchem) of 0.29 µg/mL (≈ 0.613 µM) and a Kd (RABV [9]) of 4.32 µM.

With `CCCCNc1ccc(C(=O)OCCN(C)C)cc1` [Tetracaine hydrochloride] the EC50pVSV/EC50pRABV [2] was >3, the EC50 ([2]; Pseudovirus, HEK-293T) was > 200 µM and the SICVS (RABV CVS strain [1]) was >3.0. The EC50 (RABV CVS strain [1]; Lyssavirus rabies, 24 h) was 67 µM, the “SI pRABV” value [3] was >3 and the EC50 ([3]; Pseudovirus, HEK-293T, 48 h) was 65.8 µM. For the same compound, the CC50 (in vitro [8]) was > 200 µM.

In the case of `CN1CCC(=C2c3ccccc3CC(=O)c3sccc32)CC1` [Ketotifen fumarate], the EC50pVSV/EC50pRABV [2] is reported as 8.1, the EC50 ([2]; Pseudovirus, HEK-293T) is reported as 87.8 µM and the SICVS (RABV CVS strain [1]) is reported as >3.0. For the same compound, the EC50 (RABV CVS strain [1]; Lyssavirus rabies, 24 h) was 67 µM, the “SI pRABV” value [3] was >18 and the EC50 ([3]; Pseudovirus, HEK-293T, 48 h) was 10.8 µM. For the same compound, the CC50 (in vitro [8]) was > 200 µM.

For `N.N.[Cl][Pt][Cl]` [Cisplatin], the EC50pVSV/EC50pRABV [2] was >5.1, the EC50 [2] was > 200 µM and the SICVS (RABV CVS strain [1]) was >3.0. For the same compound, the EC50 (RABV CVS strain [1]) was 67 µM, the CC50 (293T cells) was > 200 µM and the “SI pRABV” value [3] was >5.1. For the same compound, the EC50 [3] was 39.1 µM.

In the case of `CC(C)N=c1cc2n(-c3ccc(Cl)cc3)c3ccccc3nc-2cc1Nc1ccc(Cl)cc1` [CFZM, Clofazimine methanesulfonate], the “survival rate compared with the control” value (Rabies virus CVS strain) is reported as “no improvement on the survival rate” and the EC50 (RABV CVS strain [1]) is reported as 2.5 µM.

With `CC(CN1c2ccccc2S(=O)(=O)c2ccccc21)N(C)C.Cl` (stereo not drawn) [Dioxopromethazine hydrochloride] the EC50pVSV/EC50pRABV [2] was >5.5, the EC50 [2] was > 200 µM and the SICVS (RABV CVS strain [1]) was >3.0. The EC50 (RABV CVS strain [1]) was 67 µM, the CC50 (293T cells) was > 200 µM and the “SI pRABV” value [3] was >5.5. It also gave an EC50 [3] of 36.7 µM.

In the case of `CCOC(=O)C1=C(COCCN)NC(C)=C(C(=O)OC)C1c1ccccc1Cl` (stereo not drawn) [Amlodipine besylate], the EC50pVSV/EC50pRABV [2] is reported as 19.4, the EC50 ([2]; Pseudovirus, HEK-293T) is reported as 26.4 µM and the SICVS (RABV CVS strain [1]) is reported as 1.0. The EC50 (RABV CVS strain [1]; Lyssavirus rabies, 24 h) was 37.4 µM, the “SI pRABV” value [3] was 26.8 and the EC50 ([3]; Pseudovirus, HEK-293T, 48 h) was 1.4 µM. The CC50 (in vitro [8]) was 36.3 µM.

With `CC(C)N=c1cc2n(-c3ccc(Cl)cc3)c3ccccc3nc-2cc1Nc1ccc(Cl)cc1` [CFZG, Clofazimine gallic acid salt] the “percentage of sick mice at five dpi” value (Rabies virus CVS strain) was 40%, the “survival rate compared with the control” value (Rabies virus CVS strain) was “no improvement on the survival rate” and the EC50 (RABV CVS strain [1]) was 2.07 µM.

For `CCN(CC)Cc1cc(Nc2ccnc3cc(Cl)ccc23)ccc1O` [Amodiaquine hydrochloride], the EC50pVSV/EC50pRABV [2] was 5.8, the EC50 ([2]; Pseudovirus, HEK-293T) was 24.3 µM and the SICVS (RABV CVS strain [1]) was 5.7. The EC50 (RABV CVS strain [1]; Lyssavirus rabies, 24 h) was 14.8 µM, the “SI pRABV” value [3] was 20.3 and the EC50 ([3]; Pseudovirus, HEK-293T, 48 h) was 4.2 µM. The CC50 (in vitro [8]) was 84.9 µM.

In the case of `CNC1(c2ccccc2Cl)CCCCC1=O` (stereo not drawn) [Ketamine], the “concentrations inhibiting RABV replication” value (RABV [10]) is listed as 1 to 2 mM.

With `CNCCCC12CCC(c3ccccc31)c1ccccc12` [Maprotiline hydrochloride] the SICVS (RABV CVS strain [1]) was >4.5 and the CC50 (in vitro [8]) was 52 µM.

With `CC(C)N=c1cc2n(-c3ccc(Cl)cc3)c3ccccc3nc-2cc1Nc1ccc(Cl)cc1` [CFZH, Clofazimine hydrochloride salt] the “survival rate compared with the control” value (Rabies virus CVS strain) was “no improvement on the survival rate” and the EC50 (RABV CVS strain [1]) was 1.2 µM.

With `CC(C)N=c1cc2n(-c3ccc(Cl)cc3)c3ccccc3nc-2cc1Nc1ccc(Cl)cc1` [CFZS, Clofazimine salicylates] the “percentage of sick mice at five dpi” value (Rabies virus CVS strain) was 40%, the “survival at 14 dpi” value (Rabies virus CVS strain) was 50% and 40% and the “survival rate at 14 dpi” value (Rabies virus CVS strain) was 30%. The “redness in the skin” value (Rabies virus CVS strain; po) was “No redness in the skin”, the EC50 (RABV [4]) was 4.71 µM and the EC50 (RABV CVS strain [1]) was 1.2 µM. It also gave a CC50 (in vitro [7]) of 670 µM.

In the case of `CN1CCC(=C2c3ccccc3CCc3sccc32)CC1` [Pizotifen], the EC50pVSV/EC50pRABV [2] is reported as 8.2, the EC50 ([2]; Pseudovirus, HEK-293T) is reported as 25.7 µM and the SICVS (RABV CVS strain [1]) is reported as 1.5. The EC50 (RABV CVS strain [1]; Lyssavirus rabies, 24 h) was 67 µM, the “SI pRABV” value [3] was 32.3 and the EC50 ([3]; Pseudovirus, HEK-293T, 48 h) was 3.1 µM. It also gave a CC50 (in vitro [8]) of 100 µM.

`CCOC(=O)C1=C(COCCN)NC(C)=C(C(=O)OC)C1c1ccccc1Cl` (stereo not drawn) [Amlodipine maleate] showed an EC50pVSV/EC50pRABV [2] of 13.3, an EC50 [2] of 25.8 µM and an SICVS (RABV CVS strain [1]) of 0.9. The EC50 (RABV CVS strain [1]) was 37.8 µM, the CC50 (293T cells) was 34.9 µM and the “SI pRABV” value [3] was 17.9. For the same compound, the EC50 [3] was 1.9 µM.
